According to PMC12044090 (EJNMMI Research, 2025):

Biological target: T1, FAP (HT1080-hFAP cells) (Homo sapiens, UniProt Q12884)
T1 sequence (Q12884 1-760): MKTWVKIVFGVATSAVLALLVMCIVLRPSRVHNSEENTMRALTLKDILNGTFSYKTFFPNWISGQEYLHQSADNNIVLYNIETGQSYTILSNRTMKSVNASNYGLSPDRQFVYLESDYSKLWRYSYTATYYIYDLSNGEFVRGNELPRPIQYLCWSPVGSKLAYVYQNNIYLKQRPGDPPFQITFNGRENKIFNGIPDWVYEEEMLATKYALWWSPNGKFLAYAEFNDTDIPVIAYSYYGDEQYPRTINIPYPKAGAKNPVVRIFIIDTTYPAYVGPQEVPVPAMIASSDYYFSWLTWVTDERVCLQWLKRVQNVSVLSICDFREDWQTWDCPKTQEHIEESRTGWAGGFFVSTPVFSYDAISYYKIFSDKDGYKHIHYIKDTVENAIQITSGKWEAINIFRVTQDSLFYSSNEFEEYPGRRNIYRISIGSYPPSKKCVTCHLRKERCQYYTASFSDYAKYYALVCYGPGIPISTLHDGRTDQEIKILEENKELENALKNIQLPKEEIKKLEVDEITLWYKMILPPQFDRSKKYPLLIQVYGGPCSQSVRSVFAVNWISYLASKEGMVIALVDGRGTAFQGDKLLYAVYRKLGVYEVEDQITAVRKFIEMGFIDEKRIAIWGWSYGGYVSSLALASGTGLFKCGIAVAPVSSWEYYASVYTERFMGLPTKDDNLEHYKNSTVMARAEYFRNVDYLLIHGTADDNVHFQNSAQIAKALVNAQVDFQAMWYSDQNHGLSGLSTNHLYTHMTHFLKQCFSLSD
Assay: Affinity assay: competition against [68Ga]Ga-FAP2286 in HT1080-hFAP cells
Assay type: binding

CCCCCC(=O)N[C@H]1CSCc2cc(CSCCNC(=O)CCCCCNC(=O)CC[C@H](NC(=O)CCC(C(=O)O)N3CCN(CC(=O)O)CCN(CC(=O)O)CCN(CC(=O)O)CC3)C(=O)NCCCOc3ccc4nccc(C(=O)NCC(=O)N5CC(F)(F)C[C@H]5C#N)c4c3)cc(c2)CSC[C@@H](C(=O)O)NC(=O)[C@H](Cc2ccccc2)NC(=O)[C@H](CCC(N)=O)NC(=O)[C@H]([C@@H](C)O)NC(=O)[C@@H]2CCCN2C(=O)[C@@H]2CCCN2C1=O (some centres unmarked) [BiFAPI]
IC50: 11.4 ± 1.66 nM

CCCCCC(=O)N[C@H]1CSCc2cc(CSCCNC(=O)CN3CCN(CC(=O)O)CCN(CC(=O)O)CCN(CC(=O)O)CC3)cc(c2)CSC[C@@H](C(=O)O)NC(=O)[C@H](Cc2ccccc2)NC(=O)[C@H](CCC(N)=O)NC(=O)[C@H]([C@@H](C)O)NC(=O)[C@@H]2CCCN2C(=O)[C@@H]2CCCN2C1=O [FAP2286]
IC50: 6.58 ± 1.6 nM
